A value given as a limit tells only on which side of the number the result lay.

For orientation: IC50 means the concentration needed to halve the response being measured.

Holding throughout (format): cell-based
For assay [1], the target named is T1, FGFR1 (Homo sapiens, UniProt P11362).
T1 construct: DMS114 (FGFR1 amplification); host or cells: DMS114
As to the kind of experiment: pERK potency assay (In Cell ELISA), DMS114 cells. To be noted: DMS114 (FGFR1 amplification) cells, 3 hours. The source says:
(§1) The purpose of this assay is to measure the ability of test compounds to inhibit FGFR mediated downstream signaling cascades, i.e., ERK phosphorylation in cells with FGFR aberrations. FGFR aberrations become constitutively active and thus induces cascades of cellular signaling events that result in increased phosphorylation of ERK at Threonine 202 and Tyrosine 204 (pERK). The procedure called In Cell ELISA described below measures the level of cellular pERK in response to FGFR specific inhibitor compounds in FGFR aberrations of AN3CA (FGFR2/k310R, N549K), DMS114 (FGFR1 amplification), RT112 (FGFR3 overexpression/FGFR3-TACC3 fusion) and Hep3B (FGF19 amplification) cells. AN3CA, DMS114 and Hep3B cells are from ATCC. RT112 cells are from Sigma. DMS114 cells are grown and maintained using RPMI-1640 medium supplemented with 10% heat-inactivated fetal bovine serum. AN3CA, Hep3B and RT112 cells are grown and maintained using DMEM supplemented with 10% heat-inactivated fetal bovine serum. On the day before test compound addition, cells are plated in poly-D-lysine coated 96-well cell culture plates (Corning® BioCoat® Cat #356640) at 40000 cells/well/100 μL and grown overnight in a 37° C., 5% CO2 incubator. Test compounds are prepared with 4-fold serial dilutions in DMSO, with a top concentration of 10 μM. On the day of the assay, 50 μL of test compound diluted in media was added to each well of cell culture plate with the final concentration of compounds spanning from 0.000038 μM to 10 μM. After compound addition, cells are incubated for 3 hours at 37° C., 5% CO2 and then the culture medium is removed. Cells are fixed with 4% formaldehyde in phosphate-buffered saline (PBS) and incubated at RT for 20 min. The plate is then washed three times with PBST (PBS with 0.05% tween-20), followed by the incubation with 100 μL of pre-cooled methanol at −20° C. for 20 min. After incubation, methanol is removed, and the plate is washed once with PBST. Cells are permeabilized with 100 µL/well of 0.1% Triton X-100 in PBS at RT for 20 min and then quenched with quenching buffer (PBST containing 1% H2O2 and 0.1% sodium azide) for 20 min at RT with gentle shaking. After washing once with PBST, blocking buffer (250 ul/well, Pierce™ Protein-Free-PBS Blocking Buffer, Cat #37572) was then added to the cells for 1-h incubation at RT, followed by anti-pERK antibody (cell signaling, 1:1000 dilution in 5% BSA in PBST) incubation overnight at 4° C. and secondary antibody-HRP (Jackson immunoresearch, 1:3000 dilution in 5% BSA in PBST) incubation at RT for 1 h. PBST wash is carried out after each step three times. Before the addition of the substrate (Advansta ELISABright), the plate is washed with PBS twice to remove detergent residues. Cellular pERK level is determined using the microplate reader (Biotek Synergy H1) to detect the chemiluminescence signal. IC50 is determined by fitting a 4-parameter sigmoidal concentration-response model. FGFR wild type cells (H1975, PC-9 and AGS) are used to serve as negative control (FGFR selectivity) with the same assay procedures described above.
On the technique in general: ELISA stands for enzyme-linked immunosorbent assay.

The target of assay [2] is T2, FGFR2 (Homo sapiens, UniProt P21802, K310R/N549K).
T2 construct: in FGFR aberrations of AN3CA (FGFR2/k310R, N549K); host or cells: AN3CA
T2 sequence (P21802 22-821 K310R/N549K): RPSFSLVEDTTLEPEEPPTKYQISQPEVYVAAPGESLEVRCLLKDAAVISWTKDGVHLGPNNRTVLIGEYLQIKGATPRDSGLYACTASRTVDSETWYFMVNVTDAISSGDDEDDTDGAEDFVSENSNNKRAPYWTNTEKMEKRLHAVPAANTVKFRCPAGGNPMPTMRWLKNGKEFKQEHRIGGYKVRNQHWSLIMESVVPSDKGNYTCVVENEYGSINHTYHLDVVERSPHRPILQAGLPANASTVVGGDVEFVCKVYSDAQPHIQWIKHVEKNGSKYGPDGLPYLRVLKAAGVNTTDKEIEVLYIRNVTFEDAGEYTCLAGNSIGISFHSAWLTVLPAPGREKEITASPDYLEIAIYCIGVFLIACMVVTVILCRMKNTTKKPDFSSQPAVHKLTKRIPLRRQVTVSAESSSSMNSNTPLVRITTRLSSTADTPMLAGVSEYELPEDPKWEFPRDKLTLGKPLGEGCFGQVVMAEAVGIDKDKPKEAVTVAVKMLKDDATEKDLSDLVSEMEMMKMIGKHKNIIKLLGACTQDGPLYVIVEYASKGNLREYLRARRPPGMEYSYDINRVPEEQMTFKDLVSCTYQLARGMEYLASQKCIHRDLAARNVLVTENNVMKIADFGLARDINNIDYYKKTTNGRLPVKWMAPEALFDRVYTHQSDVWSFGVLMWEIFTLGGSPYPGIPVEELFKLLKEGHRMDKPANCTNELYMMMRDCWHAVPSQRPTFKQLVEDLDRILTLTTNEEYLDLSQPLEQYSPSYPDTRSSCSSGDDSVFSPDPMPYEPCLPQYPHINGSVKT
As to the kind of experiment: pERK potency assay (In Cell ELISA), AN3CA cells. To be noted: for IC50: pERK, AN3CA (FGFR2/k310R, N549K) cells, 3 hours; for FGFR1 IC50/FGFR2 IC50 / FGFR3 IC50/FGFR2 IC50: selectivity ratio, pERK potency; for FGFR1 IC50/FGFR2 IC50: FGFR2 relative to FGFR1; for FGFR3 IC50/FGFR2 IC50: FGFR2 relative to FGFR3.
Description: as §1

For assay [3], the target named is T3, FGFR3 (Homo sapiens, UniProt P22607).
T3 construct: RT112 (FGFR3 overexpression/FGFR3-TACC3 fusion); host or cells: RT112; the other entry of the earlier key: TACC3 (Q9Y6A5, Transforming acidic coiled-coil-containing protein 3)
As to the kind of experiment: pERK potency assay (In Cell ELISA), RT112 cells. To be noted: RT112 (FGFR3 overexpression/FGFR3-TACC3 fusion) cells, 3 hours.
Description: as §1

T1 sequence (P11362 22-822): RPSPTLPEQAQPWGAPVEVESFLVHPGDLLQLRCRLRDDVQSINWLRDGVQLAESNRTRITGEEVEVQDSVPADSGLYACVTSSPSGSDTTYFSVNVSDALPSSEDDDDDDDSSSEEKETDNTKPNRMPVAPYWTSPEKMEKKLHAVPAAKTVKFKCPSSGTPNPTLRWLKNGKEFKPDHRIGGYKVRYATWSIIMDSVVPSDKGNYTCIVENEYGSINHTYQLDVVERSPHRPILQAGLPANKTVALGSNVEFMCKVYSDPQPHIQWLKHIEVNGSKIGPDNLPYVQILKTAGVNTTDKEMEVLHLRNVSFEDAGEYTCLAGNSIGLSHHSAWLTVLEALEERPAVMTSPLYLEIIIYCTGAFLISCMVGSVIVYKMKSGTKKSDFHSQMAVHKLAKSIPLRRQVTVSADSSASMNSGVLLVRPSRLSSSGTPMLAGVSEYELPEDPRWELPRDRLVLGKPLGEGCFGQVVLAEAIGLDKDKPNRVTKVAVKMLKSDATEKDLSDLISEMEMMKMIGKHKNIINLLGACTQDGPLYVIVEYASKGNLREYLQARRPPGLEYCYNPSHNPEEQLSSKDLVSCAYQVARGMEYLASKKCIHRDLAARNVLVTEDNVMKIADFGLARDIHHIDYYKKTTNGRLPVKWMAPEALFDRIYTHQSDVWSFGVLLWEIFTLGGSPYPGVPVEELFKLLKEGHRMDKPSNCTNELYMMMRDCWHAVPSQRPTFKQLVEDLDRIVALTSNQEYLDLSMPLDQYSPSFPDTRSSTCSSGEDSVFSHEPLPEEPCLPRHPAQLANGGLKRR

With `C=CC(=O)N1CCC2(CC=C(c3c(-c4ncccn4)c4c(N)ncnc4n3C)CC2)CC1(C)C` (stereo not shown) [Example 34, 1-(9-(4-amino-7-methyl-5-(pyrimidin-2-yl)-7H-pyrrolo[2,3-d]pyrimidin-6-yl)-2,2-dimethyl-3-azaspiro[5.5]undec-8-en-3-yl)prop-2-en-1-one], the IC50 in assay [1] was above 100 nM; in assay [2], 1 to 10 nM; in assay [3], above 100 nM. Besides, the “FGFR1 IC50/FGFR2 IC50” value in assay [2] is recorded as “H (a selectivity ratio greater than 500 but less than or equal to 1000)”. Further, the “FGFR3 IC50/FGFR2 IC50” value in assay [2] was “J (a selectivity ratio greater than 2000)”.

As to `C=CC(=O)N1CCC2(CC=C(c3c(-c4nccc(C)n4)c4c(N)ncnc4n3C)CC2)CC1` [Example 35, 1-(9-(4-amino-7-methyl-5-(4-methylpyrimidin-2-yl)-7H-pyrrolo[2,3-d]pyrimidin-6-yl)-3-azaspiro[5.5]undec-8-en-3-yl)prop-2-en-1-one], the IC50 in assay [1] was above 100 nM. In addition, in assay [2], the IC50 lay in the range of 10 to 30 nM, the “FGFR1 IC50/FGFR2 IC50” value was “F (a selectivity ratio greater than 50 but less than or equal to 150)” and the “FGFR3 IC50/FGFR2 IC50” value is listed as “G (a selectivity ratio greater than 150 but less than or equal to 500)”. Also, the IC50 in assay [3] is above 100 nM.

Take `C=CC(=O)N1CCC2(CC=C(c3c(-c4ccc(OC5CC5)cc4)c4c(N)ncnc4n3C(F)F)CC2)CC1` [Example 36, 1-(9-(4-amino-5-(4-cyclopropoxyphenyl)-7-(difluoromethyl)-7H-pyrrolo[2,3-d]pyrimidin-6-yl)-3-azaspiro[5.5]undec-8-en-3-yl)prop-2-en-1-one]: in assay [1], the IC50 lay within 30 to 100 nM. In addition, in assay [2], the IC50 was in the range of 1 to 10 nM, the “FGFR1 IC50/FGFR2 IC50” value is on record as “F (a selectivity ratio greater than 50 but less than or equal to 150)” and the “FGFR3 IC50/FGFR2 IC50” value is recorded as “G (a selectivity ratio greater than 150 but less than or equal to 500)”. The IC50 in assay [3] is above 100 nM.

Regarding `C=CC(=O)N1CCC2(CC=C(c3c(-c4ccc(C#N)nc4)c4c(N)ncnc4n3C(F)F)CC2)CC1` [Example 37, 5-(6-(3-acryloyl-3-azaspiro[5.5]undec-8-en-9-yl)-4-amino-7-(difluoromethyl)-7H-pyrrolo[2,3-d]pyrimidin-5-yl)picolinonitrile], the IC50 in assay [1] is above 100 nM. Besides, in assay [2], the IC50 lay within 10 to 30 nM, the “FGFR1 IC50/FGFR2 IC50” value is “G (a selectivity ratio greater than 150 but less than or equal to 500)” and the “FGFR3 IC50/FGFR2 IC50” value was “G (a selectivity ratio greater than 150 but less than or equal to 500)”. Further, the IC50 in assay [3] was above 100 nM.

With `[2H]C([2H])([2H])Oc1ccc(-c2c(C3=C(F)CC4(CC3)CCN(C(=O)C=C)CC4)n(C)c3ncnc(N)c23)cc1` [Example 38, 1-(9-(4-amino-5-(4-(methoxy-d3)phenyl)-7-methyl-7H-pyrrolo[2,3-d]pyrimidin-6-yl)-8-fluoro-3-azaspiro[5.5]undec-8-en-3-yl)prop-2-en-1-one], in assay [1], the IC50 was in the range of 30 to 100 nM. Moreover, in assay [2], the IC50 is at most 1 nM, the “FGFR1 IC50/FGFR2 IC50” value is on record as “F (a selectivity ratio greater than 50 but less than or equal to 150)” and the “FGFR3 IC50/FGFR2 IC50” value was “F (a selectivity ratio greater than 50 but less than or equal to 150)”. Besides, the IC50 in assay [3] fell in the range of 30 to 100 nM.

With `C=CC(=O)N1CCC2(CC=C(c3c(-c4ccc(OC)nc4)c4c(N)ncnc4n3C)CC2)CC1(C)C` (stereo not shown) [Example 40, 1-(9-(4-amino-5-(6-methoxypyridin-3-yl)-7-methyl-7H-pyrrolo[2,3-d]pyrimidin-6-yl)-2,2-dimethyl-3-azaspiro[5.5]undec-8-en-3-yl)prop-2-en-1-one], the IC50 is above 100 nM in assay [1], 1 to 10 nM in assay [2] and above 100 nM in assay [3]. Further, the “FGFR1 IC50/FGFR2 IC50” value in assay [2] was “G (a selectivity ratio greater than 150 but less than or equal to 500)”. In assay [2], the “FGFR3 IC50/FGFR2 IC50” value is “I (a selectivity ratio greater than 1000 but less than or equal to 2000)”.

Take `C=CC(=O)N1CCC2(CC=C(c3c(-c4ccc(F)cc4)c4c(N)ncnc4n3C)CO2)CC1` [Example 41, 1-(3-(4-amino-5-(4-fluorophenyl)-7-methyl-7H-pyrrolo[2,3-d]pyrimidin-6-yl)-1-oxa-9-azaspiro[5.5]undec-3-en-9-yl)prop-2-en-1-one]: the results for the IC50 in assay [1], in assay [2] and in assay [3] were above 100 nM, 1 to 10 nM and above 100 nM, respectively. Further, in assay [2], the “FGFR1 IC50/FGFR2 IC50” value was “H (a selectivity ratio greater than 500 but less than or equal to 1000)”. Besides, the “FGFR3 IC50/FGFR2 IC50” value in assay [2] is “H (a selectivity ratio greater than 500 but less than or equal to 1000)”.

As for `C=CC(=O)N1CCC2(CC=C(c3c(-c4ncc(OC5COC5)cn4)c4c(N)ncnc4n3C)CC2)CC1` [Example 46, 1-(9-(4-amino-7-methyl-5-(5-(oxetan-3-yloxy)pyrimidin-2-yl)-7H-pyrrolo[2,3-d]pyrimidin-6-yl)-3-azaspiro[5.5]undec-8-en-3-yl)prop-2-en-1-one], the values for the IC50 in assay [1], in assay [2] and in assay [3] were above 100 nM, 1 to 10 nM and above 100 nM, respectively. Besides, the “FGFR1 IC50/FGFR2 IC50” value in assay [2] is on record as “H (a selectivity ratio greater than 500 but less than or equal to 1000)”. The “FGFR3 IC50/FGFR2 IC50” value in assay [2] is reported as “J (a selectivity ratio greater than 2000)”.

Turning to `C=CC(=O)N1CCC2(CC=C(c3c(-c4ncc5c(n4)CCO5)c4c(N)ncnc4n3C)CC2)CC1` [Example 48, 1-(9-(4-amino-5-(6,7-dihydrofuro[3,2-d]pyrimidin-2-yl)-7-methyl-7H-pyrrolo[2,3-d]pyrimidin-6-yl)-3-azaspiro[5.5]undec-8-en-3-yl)prop-2-en-1-one], the IC50 in assay [1] is above 100 nM. In assay [2], the IC50 was 1 to 10 nM, the “FGFR1 IC50/FGFR2 IC50” value is reported as “H (a selectivity ratio greater than 500 but less than or equal to 1000)” and the “FGFR3 IC50/FGFR2 IC50” value is given as “J (a selectivity ratio greater than 2000)”. Further, the IC50 in assay [3] is above 100 nM.

Take `C=CC(=O)N1CCC2(CC=C(c3c(-c4ncccc4F)c4c(N)ncnc4n3C)CC2)CC1` [Example 49, 1-(9-(4-amino-5-(3-fluoropyridin-2-yl)-7-methyl-7H-pyrrolo[2,3-d]pyrimidin-6-yl)-3-azaspiro[5.5]undec-8-en-3-yl)prop-2-en-1-one]: in assay [1], the IC50 was above 100 nM. In assay [2], the IC50 was in the range of 30 to 100 nM, the “FGFR1 IC50/FGFR2 IC50” value was “G (a selectivity ratio greater than 150 but less than or equal to 500)” and the “FGFR3 IC50/FGFR2 IC50” value was “G (a selectivity ratio greater than 150 but less than or equal to 500)”. Moreover, the IC50 in assay [3] was above 100 nM.

`C=CC(=O)N1CCC2(CC=C(c3c(-c4ncco4)c4c(N)ncnc4n3C)CC2)CC1` [Example 53, 1-(9-(4-amino-7-methyl-5-(oxazol-2-yl)-7H-pyrrolo[2,3-d]pyrimidin-6-yl)-3-azaspiro[5.5]undec-8-en-3-yl)prop-2-en-1-one]: the IC50 in assay [1], in assay [2] and in assay [3] was above 100 nM throughout.

On to `C=CC(=O)N1CCC2(CC=C(c3c(-c4ncccn4)c4c(N)ncnc4n3CCO)CC2)CC1` [Example 54, 1-(9-(4-amino-7-(2-hydroxyethyl)-5-(pyrimidin-2-yl)-7H-pyrrolo[2,3-d]pyrimidin-6-yl)-3-azaspiro[5.5]undec-8-en-3-yl)prop-2-en-1-one], for which, in assay [1], the IC50 was above 100 nM. Besides, in assay [2], the IC50 was in the range of 1 to 10 nM, the “FGFR1 IC50/FGFR2 IC50” value is reported as “F (a selectivity ratio greater than 50 but less than or equal to 150)” and the “FGFR3 IC50/FGFR2 IC50” value is on record as “G (a selectivity ratio greater than 150 but less than or equal to 500)”. Also, the IC50 in assay [3] is above 100 nM.

(Values after patent publication US20260152503A1, “SPIROBICYCLIC COMPOUNDS” (ACERAND THERAPEUTICS (HONG KONG) LIMITED, priority 2022, published 2026).)
